Source: the supplement of paper PMC11061612

Tests used:
Experiment in all cases: Bliss excess, mean over the matrix (fraction); higher = more synergy
[1] = system: NCI-H1975 (Lung Adenocarcinoma)
Method in brief: (§1)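 Cell lines grown in DMEM/F12 or RPMI with 10% FBS were plated in 1536-well plates and held 24 hours at 37°C, 5% CO2 before 72 hours of exposure to two-drug dose matrices, with DMSO typically at 0.2%. CellTiter-Glo 2.0 luminescence gave viability, which was converted to inhibition. Vehicle wells were set to 0 and blank wells to 1. Combination Emax is the second-highest inhibition in the matrix, and Bliss excess is the observed combination effect minus the expected EA + EB − EA·EB, where EA and EB are the single-agent effects.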

[2] = system: ATN-1 (T-Lymphoblastic Leukemia)
Method in brief: as §1

[3] = system: JJN-3 (Plasma Cell Myeloma)
Method in brief: as §1

[4] = system: SBC-3 (Small Cell Lung Carcinoma)
Method in brief: as §1

[5] = system: TOV-21G (Ovarian Carcinoma)
Method in brief: as §1

[6] = system: BC-1 (B-Cell Non-Hodgkin's Lymphoma)
Method in brief: as §1

[7] = system: COR-L105 (Lung Adenocarcinoma)
Method in brief: as §1

[8] = system: NCI-H1944 (Lung Adenocarcinoma)
Method in brief: as §1

[9] = system: SBC-5 (Small Cell Lung Carcinoma)
Method in brief: as §1

[10] = system: OVKATE (Ovarian Carcinoma)
Method in brief: as §1

[11] = system: NCI-H1435 (Non-Small Cell Lung Carcinoma)
Method in brief: as §1

A375 (Melanoma) = system: A375 (Melanoma)
Method in brief: as §1

DK-MG (Glioblastoma) = system: DK-MG (Glioblastoma)
Method in brief: as §1

[12] = system: RS4-11 (B-Lymphoblastic Leukemia)
Method in brief: as §1

HT-144 (Melanoma) = system: HT-144 (Melanoma)
Method in brief: as §1

[13] = system: SNU-1 (Gastric Carcinoma)
Method in brief: as §1

[14] = system: C2BBe1 (Colorectal Carcinoma)
Method in brief: as §1

[15] = system: NCI-H2023 (Non-Small Cell Lung Carcinoma)
Method in brief: as §1

[16] = system: OCI-M1 (Acute Myeloid Leukemia)
Method in brief: as §1

[17] = system: NCI-H835 (Other Solid Carcinomas)
Method in brief: as §1

Which Bliss excess [1] does the source give for CN(CCO)CC[C@H](CSc1ccccc1)Nc1ccc(S(=O)(=O)NC(=O)c2ccc(N3CCC([C@@H](O)c4ccccc4-c4ccc(Cl)cc4)CC3)cc2)cc1S(=O)(=O)C(F)(F)F [AZD4320] + CCN(CCO)CCCOc1ccc2c(Nc3cc(CC(=O)Nc4cccc(F)c4)[nH]n3)ncnc2c1 [AZD2811] (first compound max 1 µM, 7x7, partner max 1 µM) here?
Its Bliss excess is -0.0226.

What about the Bliss excess [2] of the same compound?
Its Bliss excess is 0.0082.

And the Bliss excess [3]?
The Bliss excess was 0.151.

And the Bliss excess [4]?
The Bliss excess was 0.0224.

What about the Bliss excess [5] of the same compound?
Its Bliss excess is -0.0177.

And the Bliss excess [6]?
Its Bliss excess is 0.091.

And the Bliss excess [7]?
The Bliss excess was -0.0523.

And the Bliss excess [8]?
The Bliss excess was 0.0026.

What about the Bliss excess [9] of the same compound?
The Bliss excess was -0.0075.

And the Bliss excess [10]?
The Bliss excess was -0.0204.

What about the Bliss excess [11] of the same compound?
The Bliss excess was 0.004.

What about the Bliss excess (A375 (Melanoma)) of the same compound?
The Bliss excess was 0.0107.

And the Bliss excess (DK-MG (Glioblastoma))?
Its Bliss excess is -0.0213.

And the Bliss excess [12]?
The Bliss excess was -0.0011.

And the Bliss excess (HT-144 (Melanoma))?
The Bliss excess was 0.0304.

What about the Bliss excess [13] of the same compound?
Its Bliss excess is 0.0461.

What about the Bliss excess [14] of the same compound?
The Bliss excess was -0.0326.

What about the Bliss excess [15] of the same compound?
Its Bliss excess is -0.0636.

And the Bliss excess [16]?
Its Bliss excess is 0.0074.

Which results are given for C[C@@H](c1ccc2nccn2c1)n1nnc2ncc(-c3cnn(C)c3)nc21 [Savolitinib] + CC1(C)CCC(CN2CCN(c3ccc(C(=O)NS(=O)(=O)c4ccc(NCC5CCOCC5)c([N+](=O)[O-])c4)c(Oc4cnc5[nH]ccc5c4)c3)CC2)=C(c2ccc(Cl)cc2)C1 [Venetoclax] (first compound max 1 µM, 7x7, partner max 1 µM)?
Bliss excess [1]: -0.0329; Bliss excess [2]: -0.0192; Bliss excess [3]: -0.012; Bliss excess [4]: -0.0435; Bliss excess [5]: -0.0577; Bliss excess [6]: 0.0031; Bliss excess [7]: -0.0423; Bliss excess [8]: -0.0328; Bliss excess [9]: -0.0451; Bliss excess [10]: -0.0495; Bliss excess [11]: -0.0034; Bliss excess (A375 (Melanoma)): -0.0463; Bliss excess (DK-MG (Glioblastoma)): -0.119; Bliss excess [12]: -0.0566; Bliss excess (HT-144 (Melanoma)): -0.0569; Bliss excess [13]: -0.0821; Bliss excess [14]: -0.0759; Bliss excess [15]: -0.0161; Bliss excess [17]: -0.0355; Bliss excess [16]: -0.0215

CN(CCO)CC[C@H](CSc1ccccc1)Nc1ccc(S(=O)(=O)NC(=O)c2ccc(N3CCC([C@@H](O)c4ccccc4-c4ccc(Cl)cc4)CC3)cc2)cc1S(=O)(=O)C(F)(F)F [AZD4320] + Cc1cc2ncnn2cc1Nc1ncc2c(n1)n(C1CCOCC1)c(=O)n2C [AZD7648] (first compound max 1 µM, 7x7, partner max 10 µM) was tested. Which Bliss excess [1] did it give?
Its Bliss excess is -0.0283.

What about the Bliss excess [2] of the same compound?
The Bliss excess was 0.0479.

What about the Bliss excess [3] of the same compound?
Its Bliss excess is 0.0461.

And the Bliss excess [4]?
The Bliss excess was -0.0767.

And the Bliss excess [5]?
The Bliss excess was -0.0221.

What about the Bliss excess [6] of the same compound?
Its Bliss excess is 0.0246.

What about the Bliss excess [7] of the same compound?
The Bliss excess was -0.0146.

And the Bliss excess [8]?
Its Bliss excess is 0.0102.

What about the Bliss excess [9] of the same compound?
The Bliss excess was -0.032.

What about the Bliss excess [10] of the same compound?
Its Bliss excess is -0.0269.

What about the Bliss excess [11] of the same compound?
The Bliss excess was 0.0137.

What about the Bliss excess (A375 (Melanoma)) of the same compound?
The Bliss excess was -0.0312.

What about the Bliss excess (DK-MG (Glioblastoma)) of the same compound?
The Bliss excess was -0.0591.

What about the Bliss excess [12] of the same compound?
Its Bliss excess is -0.0148.

What about the Bliss excess (HT-144 (Melanoma)) of the same compound?
Its Bliss excess is -0.0122.

What about the Bliss excess [13] of the same compound?
Its Bliss excess is 0.0237.

What about the Bliss excess [14] of the same compound?
The Bliss excess was -0.0403.

And the Bliss excess [15]?
Its Bliss excess is -0.0585.

What about the Bliss excess [16] of the same compound?
The Bliss excess was 0.0138.

How did the Bliss excess [1] turn out when CN(CCO)CC[C@H](CSc1ccccc1)Nc1ccc(S(=O)(=O)NC(=O)c2ccc(N3CCC([C@@H](O)c4ccccc4-c4ccc(Cl)cc4)CC3)cc2)cc1S(=O)(=O)C(F)(F)F [AZD4320] + C[C@@H]1COCCN1C2=NC(=NC(=C2)C3(CC3)[S@](=N)(=O)C)C4=C5C=CNC5=NC=C4 [AZD6738] (first compound max 1 µM, 7x7, partner max 10 µM) was run?
Its Bliss excess is -0.0134.

What about the Bliss excess [2] of the same compound?
Its Bliss excess is 0.0273.

And the Bliss excess [3]?
Its Bliss excess is 0.0041.

What about the Bliss excess [4] of the same compound?
Its Bliss excess is -0.0184.

What about the Bliss excess [5] of the same compound?
Its Bliss excess is -0.0224.

And the Bliss excess [6]?
The Bliss excess was -0.0014.

And the Bliss excess [7]?
Its Bliss excess is -0.0711.

And the Bliss excess [8]?
The Bliss excess was -0.0227.

What about the Bliss excess [9] of the same compound?
Its Bliss excess is -0.0511.

What about the Bliss excess [10] of the same compound?
The Bliss excess was -0.0581.

And the Bliss excess [11]?
Its Bliss excess is 0.0366.

And the Bliss excess (A375 (Melanoma))?
Its Bliss excess is -0.0221.

What about the Bliss excess (DK-MG (Glioblastoma)) of the same compound?
Its Bliss excess is -0.0439.

What about the Bliss excess [12] of the same compound?
Its Bliss excess is 0.026.

What about the Bliss excess (HT-144 (Melanoma)) of the same compound?
Its Bliss excess is -0.0385.

What about the Bliss excess [13] of the same compound?
The Bliss excess was -0.0343.

And the Bliss excess [14]?
The Bliss excess was -0.14.

What about the Bliss excess [15] of the same compound?
The Bliss excess was -0.0255.

And the Bliss excess [16]?
Its Bliss excess is 0.0051.

With C[C@@H](c1ccc2nccn2c1)n1nnc2ncc(-c3cnn(C)c3)nc21 [Savolitinib] + CN(CC[C@H](CSC1=CC=CC=C1)NC2=C(C=C(C=C2)S(=O)(=O)NC(=O)C3=CC=C(C=C3)N4CCC(CC4)[C@H](C5=CC=CC=C5C6=CC=C(C=C6)Cl)O)S(=O)(=O)C(F)(F)F)CCO [AZD4320] (first compound max 1 µM, 7x7, partner max 1 µM) as the compound, how does the Bliss excess [1] read?
Its Bliss excess is -0.0555.

And the Bliss excess [2]?
The Bliss excess was 0.0235.

What about the Bliss excess [3] of the same compound?
Its Bliss excess is -0.0374.

What about the Bliss excess [5] of the same compound?
Its Bliss excess is -0.0216.

What about the Bliss excess [8] of the same compound?
Its Bliss excess is -0.0288.

What about the Bliss excess [9] of the same compound?
Its Bliss excess is -0.0003.

What about the Bliss excess (A375 (Melanoma)) of the same compound?
The Bliss excess was -0.0463.

And the Bliss excess (DK-MG (Glioblastoma))?
Its Bliss excess is -0.0585.

What about the Bliss excess [12] of the same compound?
The Bliss excess was -0.0131.

And the Bliss excess (HT-144 (Melanoma))?
The Bliss excess was -0.0287.

What about the Bliss excess [13] of the same compound?
The Bliss excess was -0.0597.

What about the Bliss excess [14] of the same compound?
Its Bliss excess is -0.0348.

What about the Bliss excess [16] of the same compound?
Its Bliss excess is -0.0212.

How did the Bliss excess [4] turn out when Cc1cc2ncnn2cc1Nc1ncc2c(n1)n(C1CCOCC1)c(=O)n2C [AZD7648] + COc1cc([C@@H]2c3cc4c(cc3[C@@H](O[C@@H]3O[C@@H]5CO[C@@H](C)O[C@H]5[C@H](O)[C@H]3O)[C@H]3COC(=O)[C@H]23)OCO4)cc(OC)c1O [Etoposide] (first compound max 10 µM, 7x7, partner max 10 µM) was run?
Its Bliss excess is 0.119.

What about the Bliss excess [6] of the same compound?
Its Bliss excess is 0.0896.

What about the Bliss excess [7] of the same compound?
The Bliss excess was 0.0299.

And the Bliss excess [10]?
Its Bliss excess is -0.0214.

And the Bliss excess [11]?
The Bliss excess was 0.0043.

And the Bliss excess (A375 (Melanoma))?
Its Bliss excess is 0.119.

What about the Bliss excess [15] of the same compound?
The Bliss excess was 0.0401.

And the Bliss excess [17]?
The Bliss excess was 0.024.

For C=CCn1c(=O)c2cnc(Nc3ccc(N4CCN(C)CC4)cc3)nc2n1-c1cccc(C(C)(C)O)n1 [AZD1775] + C1CN(CCC1(C(=O)N[C@@H](CCO)C2=CC=C(C=C2)Cl)N)C3=NC=NC4=C3C=CN4 [Capivasertib] (first compound max 3 µM, partner max 3 µM), which Bliss excess [1] is on record?
Its Bliss excess is -0.0668.

What about the Bliss excess [2] of the same compound?
The Bliss excess was 0.0364.

And the Bliss excess [3]?
Its Bliss excess is -0.0417.

What about the Bliss excess [4] of the same compound?
Its Bliss excess is -0.0786.

And the Bliss excess [5]?
Its Bliss excess is -0.0043.

And the Bliss excess [6]?
The Bliss excess was 0.0279.

What about the Bliss excess [7] of the same compound?
Its Bliss excess is -0.0627.

And the Bliss excess [8]?
The Bliss excess was 0.0207.

What about the Bliss excess [9] of the same compound?
The Bliss excess was 0.0256.

What about the Bliss excess [10] of the same compound?
The Bliss excess was -0.0239.

What about the Bliss excess [11] of the same compound?
Its Bliss excess is 0.0011.

What about the Bliss excess (DK-MG (Glioblastoma)) of the same compound?
Its Bliss excess is -0.0023.

What about the Bliss excess [12] of the same compound?
Its Bliss excess is 0.0201.

And the Bliss excess (HT-144 (Melanoma))?
Its Bliss excess is 0.0014.

And the Bliss excess [13]?
The Bliss excess was 0.0488.

What about the Bliss excess [14] of the same compound?
The Bliss excess was -0.077.

What about the Bliss excess [15] of the same compound?
Its Bliss excess is -0.003.

What about the Bliss excess [17] of the same compound?
Its Bliss excess is -0.0572.

What about the Bliss excess [16] of the same compound?
The Bliss excess was 0.0245.

Which Bliss excess [4] does the source give for N#Cc1cnc(Nc2cc(NC[C@H]3CNCCO3)c(C(F)(F)F)cn2)cn1 [SRA737] + CCc1c2c(nc3ccc(O)cc13)-c1cc3c(c(=O)n1C2)COC(=O)[C@]3(O)CC [SN-38] (first compound max 10 µM, 7x7, partner max 0.3 µM) here?
The Bliss excess was -0.0632.

What about the Bliss excess [6] of the same compound?
Its Bliss excess is -0.0242.

What about the Bliss excess [7] of the same compound?
Its Bliss excess is -0.035.

And the Bliss excess [10]?
The Bliss excess was -0.045.

What about the Bliss excess [11] of the same compound?
Its Bliss excess is -0.0243.

What about the Bliss excess (A375 (Melanoma)) of the same compound?
The Bliss excess was -0.0288.

What about the Bliss excess [15] of the same compound?
The Bliss excess was -0.0813.

And the Bliss excess [17]?
Its Bliss excess is -0.0262.
